According to US20050197350A1, “Novel quinoline, tetrahydroquinazoline, and pyrimidine derivatives and methods of treatment related to the use thereof” (TAISHO PHARMACEUTICAL CO., LTD., priority 2003, published 2005):

These molecules were tested on MCH receptors (assay: MCH receptor activity class (method not given)). Settings: class by percent of control at 10^-7 M or IC50.

SMILES	class
COc1ccc(C)cc1NC(=S)N[C@H]1CC[C@@H](Nc2nc3c(c(N(C)C)n2)CCCC3)CC1 [compound 1750]	2 (Class 2: The value of percent of control at 10^−7 M was from 40% to 60% or the value of IC′50 was from 50 nM to 200 nM.)
CN(C)c1nc(N[C@H]2CC[C@@H](NC(=S)Nc3ccc(Br)cc3Cl)CC2)nc2c1CCCC2 [compound 1751]	1 (Class 1: The value of percent of control at 10^−7 M was less than 40% or the value of IC50 was less than 50 nM.)
CN(C)c1nc(N[C@H]2CC[C@@H](NC(=S)Nc3ccc(I)cc3)CC2)nc2c1CCCC2 [compound 1752]	2 (Class 2: The value of percent of control at 10^−7 M was from 40% to 60% or the value of IC′50 was from 50 nM to 200 nM.)
CN(C)c1nc(N[C@H]2CC[C@@H](NC(=S)Nc3c(Cl)cc(Cl)cc3Cl)CC2)nc2c1CCCC2 [compound 1754]	2 (Class 2: The value of percent of control at 10^−7 M was from 40% to 60% or the value of IC′50 was from 50 nM to 200 nM.)
Cc1cc(C)c(NC(=S)N[C@H]2CC[C@@H](Nc3nc4c(c(N(C)C)n3)CCCC4)CC2)c(C)c1 [compound 1755]	1 (Class 1: The value of percent of control at 10^−7 M was less than 40% or the value of IC50 was less than 50 nM.)
Cc1ccc(NC(=S)N[C@H]2CC[C@@H](Nc3nc4c(c(N(C)C)n3)CCCC4)CC2)c(C)c1 [compound 1756]	2 (Class 2: The value of percent of control at 10^−7 M was from 40% to 60% or the value of IC′50 was from 50 nM to 200 nM.)
CCc1cccc(CC)c1NC(=S)N[C@H]1CC[C@@H](Nc2nc3c(c(N(C)C)n2)CCCC3)CC1 [compound 1757]	1 (Class 1: The value of percent of control at 10^−7 M was less than 40% or the value of IC50 was less than 50 nM.)
Cc1ccc(NC(=S)N[C@H]2CC[C@@H](Nc3nc4c(c(N(C)C)n3)CCCC4)CC2)c(Br)c1 [compound 1758]	3 (Class 3 The value of percent of control at 10^−7 M was more than 60% or the value of IC50 was more than 200 nM.)
CN(C)c1nc(N[C@H]2CC[C@@H](NC(=S)NCc3ccccc3Cl)CC2)nc2c1CCCC2 [compound 1759]	3 (Class 3 The value of percent of control at 10^−7 M was more than 60% or the value of IC50 was more than 200 nM.)
CCc1cccc(C)c1NC(=S)N[C@H]1CC[C@@H](Nc2nc3c(c(N(C)C)n2)CCCC3)CC1 [compound 1760]	3 (Class 3 The value of percent of control at 10^−7 M was more than 60% or the value of IC50 was more than 200 nM.)
CC(C)c1ccccc1NC(=S)N[C@H]1CC[C@@H](Nc2nc3c(c(N(C)C)n2)CCCC3)CC1 [compound 1761]	3 (Class 3 The value of percent of control at 10^−7 M was more than 60% or the value of IC50 was more than 200 nM.)
COC(=O)c1cccc(NC(=S)N[C@H]2CC[C@@H](Nc3nc4c(c(N(C)C)n3)CCCC4)CC2)c1 [compound 1762]	3 (Class 3 The value of percent of control at 10^−7 M was more than 60% or the value of IC50 was more than 200 nM.)
Cc1cc(Br)cc(C)c1NC(=S)N[C@H]1CC[C@@H](Nc2nc3c(c(N(C)C)n2)CCCC3)CC1 [compound 1763, N-(4-bromo-2,6-dimethylphenyl)-N′-(cis-4-{[4-(dimethylamino)-5,6,7,8-tetrahydroquinazolin-2-yl]amino}cyclohexyl)thiourea]	1 (Class 1: The value of percent of control at 10^−7 M was less than 40% or the value of IC50 was less than 50 nM.)
Cc1cc(Br)ccc1NC(=S)N[C@H]1CC[C@@H](Nc2nc3c(c(N(C)C)n2)CCCC3)CC1 [compound 1764, N-(4-bromo-2-methylphenyl)-N′-(cis-4-{[4-(dimethylamino)-5,6,7,8-tetrahydroquinazolin-2-yl]amino}cyclohexyl)thiourea]	1 (Class 1: The value of percent of control at 10^−7 M was less than 40% or the value of IC50 was less than 50 nM.)
CN(C)c1nc(N[C@H]2CC[C@@H](NC(=S)Nc3ccc(Br)cc3C(F)(F)F)CC2)nc2c1CCCC2 [compound 1765]	1 (Class 1: The value of percent of control at 10^−7 M was less than 40% or the value of IC50 was less than 50 nM.)
Cc1cc(Cl)ccc1NC(=S)N[C@H]1CC[C@@H](Nc2nc3c(c(N(C)C)n2)CCCC3)CC1 [compound 1766, N-(4-chloro-2-methylphenyl)-N′-(cis-4-{[4-(dimethylamino)-5,6,7,8-tetrahydroquinazolin-2-yl]amino}cyclohexyl)thiourea]	1 (Class 1: The value of percent of control at 10^−7 M was less than 40% or the value of IC50 was less than 50 nM.)
CN(C)c1nc(N[C@H]2CC[C@@H](NC(=S)NCc3cccc4ccccc34)CC2)nc2c1CCCC2 [compound 1767]	3 (Class 3 The value of percent of control at 10^−7 M was more than 60% or the value of IC50 was more than 200 nM.)
COc1cccc(CNC(=S)N[C@H]2CC[C@@H](Nc3nc4c(c(N(C)C)n3)CCCC4)CC2)c1OC [compound 1768]	3 (Class 3 The value of percent of control at 10^−7 M was more than 60% or the value of IC50 was more than 200 nM.)
Cc1cc(C)c(NC(=S)N[C@H]2CC[C@@H](Nc3nc4c(c(N(C)C)n3)CCCC4)CC2)cc1C [compound 1769]	3 (Class 3 The value of percent of control at 10^−7 M was more than 60% or the value of IC50 was more than 200 nM.)

SMILES	class
CN(C)c1nc(N[C@H]2CC[C@@H](NC(=S)Nc3ccccc3-c3ccccc3)CC2)nc2c1CCCC2 [compound 1770]	3 (Class 3 The value of percent of control at 10^−7 M was more than 60% or the value of IC50 was more than 200 nM.)
Cc1cc([N+](=O)[O-])ccc1NC(=S)N[C@H]1CC[C@@H](Nc2nc3c(c(N(C)C)n2)CCCC3)CC1 [compound 1771]	3 (Class 3 The value of percent of control at 10^−7 M was more than 60% or the value of IC50 was more than 200 nM.)
CN(C)c1nc(N[C@H]2CC[C@@H](NC(=S)NCc3cccc(Cl)c3)CC2)nc2c1CCCC2 [compound 1772]	3 (Class 3 The value of percent of control at 10^−7 M was more than 60% or the value of IC50 was more than 200 nM.)
Cc1cc(F)ccc1NC(=S)N[C@H]1CC[C@@H](Nc2nc3c(c(N(C)C)n2)CCCC3)CC1 [compound 1775]	2 (Class 2: The value of percent of control at 10^−7 M was from 40% to 60% or the value of IC′50 was from 50 nM to 200 nM.)
COc1ccc(NC(=S)N[C@H]2CC[C@@H](Nc3nc4c(c(N(C)C)n3)CCCC4)CC2)c(C)c1 [compound 1776]	2 (Class 2: The value of percent of control at 10^−7 M was from 40% to 60% or the value of IC′50 was from 50 nM to 200 nM.)
COc1cc(OC)c(NC(=S)N[C@H]2CC[C@@H](Nc3nc4c(c(N(C)C)n3)CCCC4)CC2)cc1Cl [compound 1777]	1 (Class 1: The value of percent of control at 10^−7 M was less than 40% or the value of IC50 was less than 50 nM.)
C[C@@H](NC(=S)N[C@H]1CC[C@@H](Nc2nc3c(c(N(C)C)n2)CCCC3)CC1)c1ccccc1 [compound 1778]	3 (Class 3 The value of percent of control at 10^−7 M was more than 60% or the value of IC50 was more than 200 nM.)
Cc1cccc(NC(=S)N[C@H]2CC[C@@H](Nc3nc4c(c(N(C)C)n3)CCCC4)CC2)c1C [compound 1779]	3 (Class 3 The value of percent of control at 10^−7 M was more than 60% or the value of IC50 was more than 200 nM.)
CN(C)c1nc(N[C@H]2CC[C@@H](NC(=S)Nc3c(F)cc(Br)cc3Br)CC2)nc2c1CCCC2 [compound 1780, N-(2,4-dibromo-6-fluorophenyl)-N′-(cis-4-{[4-(dimethylamino)-5,6,7,8-tetrahydroquinazolin-2-yl]amino}cyclohexyl)thiourea]	2 (Class 2: The value of percent of control at 10^−7 M was from 40% to 60% or the value of IC′50 was from 50 nM to 200 nM.)
Cc1cc(Cl)cc(Cl)c1NC(=S)N[C@H]1CC[C@@H](Nc2nc3c(c(N(C)C)n2)CCCC3)CC1 [compound 1781, N-(2,4-dichloro-6-methylphenyl)-N′-(cis-4-{[4-(dimethylamino)-5,6,7,8-tetrahydroquinazolin-2-yl]amino}cyclohexyl)thiourea]	1 (Class 1: The value of percent of control at 10^−7 M was less than 40% or the value of IC50 was less than 50 nM.)
CCOc1ccccc1NC(=S)N[C@H]1CC[C@@H](Nc2nc3c(c(N(C)C)n2)CCCC3)CC1 [compound 1782]	2 (Class 2: The value of percent of control at 10^−7 M was from 40% to 60% or the value of IC′50 was from 50 nM to 200 nM.)
Cc1cccc(C(C)C)c1NC(=S)N[C@H]1CC[C@@H](Nc2nc3c(c(N(C)C)n2)CCCC3)CC1 [compound 1783]	3 (Class 3 The value of percent of control at 10^−7 M was more than 60% or the value of IC50 was more than 200 nM.)
CN(C)c1nc(N[C@H]2CC[C@@H](NC(=S)Nc3ccc4c(c3)OCCO4)CC2)nc2c1CCCC2 [compound 1784]	3 (Class 3 The value of percent of control at 10^−7 M was more than 60% or the value of IC50 was more than 200 nM.)
CN(C)c1nc(N[C@H]2CC[C@@H](NC(=S)Nc3ccc4c(c3)OCO4)CC2)nc2c1CCCC2 [compound 1785]	3 (Class 3 The value of percent of control at 10^−7 M was more than 60% or the value of IC50 was more than 200 nM.)
Cc1c(Cl)cccc1NC(=S)N[C@H]1CC[C@@H](Nc2nc3c(c(N(C)C)n2)CCCC3)CC1 [compound 1786]	3 (Class 3 The value of percent of control at 10^−7 M was more than 60% or the value of IC50 was more than 200 nM.)
CN(C)c1nc(N[C@H]2CC[C@@H](NC(=S)Nc3ccc(Br)cc3OC(F)(F)F)CC2)nc2c1CCCC2 [compound 1787]	2 (Class 2: The value of percent of control at 10^−7 M was from 40% to 60% or the value of IC′50 was from 50 nM to 200 nM.)
COc1cc(NC(=S)N[C@H]2CC[C@@H](Nc3nc4c(c(N(C)C)n3)CCCC4)CC2)c(OC)cc1Cl [compound 1788]	2 (Class 2: The value of percent of control at 10^−7 M was from 40% to 60% or the value of IC′50 was from 50 nM to 200 nM.)
Cc1onc(-c2ccccc2)c1NC(=S)N[C@H]1CC[C@@H](Nc2nc3c(c(N(C)C)n2)CCCC3)CC1 [compound 1789]	3 (Class 3 The value of percent of control at 10^−7 M was more than 60% or the value of IC50 was more than 200 nM.)
CN(C)c1nc(NC2CCC(NC(=S)NC3CC4CCC3C4)CC2)nc2c1CCCC2 (centres unmarked) [compound 1790]	3 (Class 3 The value of percent of control at 10^−7 M was more than 60% or the value of IC50 was more than 200 nM.)
